Molecules are shown by their SMILES.

The data set is described as follows: Hygroscopicity test: exposure to controlled relative humidity, XRPD and Karl-Fischer water content before and after. The data set is classed as physicochemical. The following applies: about room temperature; for conversion to another solid state form of Cabazitaxel (polymorphic stability): normal atmospheric humidity, 60%, 80% and 100% RH, two days exposure; for hygroscopicity: various relative humidity conditions. The procedure: Hygroscopicity Test Procedure:
About 150 mg of a sample was placed to a cell with controlled relative humidity. The samples were exposed to 60%, 80% and 100% relative humidity for a period of two days. XRPD analysis and water content by coulometric Karl-Fischer titration were carried out before and after the exposure to the defined relative humidity. Coulometric Karl-Fischer Titration: Water was determined by KF Oven method (832 KF Thermoprep connected to 831 KF Coulometer). Water from the sample (50 mg of cabazitaxel) was released by nitrogen stream at 130° C. Extraction time was 10 minutes.

On to `CO[C@H]1C(=O)[C@]2(C)[C@@H](OC)C[C@H]3OC[C@@]3(OC(C)=O)[C@H]2[C@H](OC(=O)c2ccccc2)[C@]2(O)C[C@H](OC(=O)[C@H](O)[C@@H](NC(=O)OC(C)(C)C)c3ccccc3)C(C)=C1C2(C)C` [Form X, Cabazitaxel methyl isobutyl ketone solvate], for which the “conversion to another solid state form of Cabazitaxel (polymorphic stability)” value (from here on “conversion to another solid state form”) was “does not convert to any other forms of Cabazitaxel” and the hygroscopicity entry is reported as “low-hygroscopicity form”.

Turning to `CO[C@H]1C(=O)[C@]2(C)[C@@H](OC)C[C@H]3OC[C@@]3(OC(C)=O)[C@H]2[C@H](OC(=O)c2ccccc2)[C@]2(O)C[C@H](OC(=O)[C@H](O)[C@@H](NC(=O)OC(C)(C)C)c3ccccc3)C(C)=C1C2(C)C` [Form VII, Cabazitaxel ethyl acetate solvate], the “conversion to another solid state form” value is reported as “does not convert to any other form of Cabazitaxel” and the hygroscopicity entry is “low-hygroscopicity form”.

On to `CO[C@H]1C(=O)[C@]2(C)[C@@H](OC)C[C@H]3OC[C@@]3(OC(C)=O)[C@H]2[C@H](OC(=O)c2ccccc2)[C@]2(O)C[C@H](OC(=O)[C@H](O)[C@@H](NC(=O)OC(C)(C)C)c3ccccc3)C(C)=C1C2(C)C` [acetone solvate, Cabazitaxel acetone solvate, reference compound], for which the “conversion to another solid state form” value is listed as “already transform to the anhydrous form B after two days”.
